Assay results taken from US11571403B2, “Methods for the treatment of non-alcoholic steatohepatitis” (Eiger Biopharmaceuticals, Inc., priority 2016, dated 2023).

How the values were obtained:
[1] = tested on: STAM mouse model for NASH; assay: Plasma CK-18, STAM mouse NASH model (Example 1); type: in vivo
Description: The STAM™ mouse is a model for NASH created by a combination of chemical and dietary interventions in C57BL/6 mice that manifest NASH at about 8 weeks, which progresses to fibrosis at about 12 weeks and then progresses to HCC at about 16 weeks. See, Saito et al., Sci. Rep. 2015, 5:12466.
In the study, the control groups were as follows: (i) Untreated Disease Control—a group of STAM mice injected with streptozotocin (STZ, Sigma-Aldrich, USA) at 2 days old, and fed a high fat diet (HFD, 57 kcal % fat, Cat #HFD32, CLEA Japan, Japan) starting at 4 weeks old; and (ii) Positive Control—a group of STAM mice treated with telmisartan (10 mg/kg QD from 7 to 9 weeks). In addition to these control groups, test groups of STAM mice treated with a low dose of ubenimex (5 mg/kg ubenimex BID from 7 to 9 weeks) or a high dose of ubenimex (25 mg/kg BID from 7 to 9 weeks), were included in the study. The low dose is equivalent to a human dose of 30 mg BID. The high dose is equivalent to a human dose of 150 mg BID. The viability, clinical signs and behavior were monitored daily, including body weight, signs of toxicity, moribundity and mortality. The mice were maintained in a SPF facility under controlled conditions of temperature (23±2° C.), humidity (45±10%), lighting (12-hour artificial light and dark cycles; light from 8:00 to 20:00) and air exchange. A high pressure was maintained in the experimental room to prevent contamination of the facility. The mice were housed in TPX cages (CLEA Japan) with a maximum of 4 mice per case.
All groups of mice were sacrificed at 9 weeks. Once sacrificed, the body weight of each mouse was recorded. The liver of each mouse was removed and weighed. The liver-to-body weight ratio was determined for each mouse. Blood serum levels of CK-18, ALT, and liver triglycerides were determined for each mouse. The livers were then sectioned and stained with hematoxylin and eosin (“HE”) stain, as well as Sirius red staining, to determine liver steatosis (ballooning) and fibrosis, respectively.

[2] = tested on: STAM model of NASH fibrosis; assay: Biochemistry: plasma ALT and liver triglyceride, STAM model of NASH with fibrosis (Example 3); type: in vivo, mouse
Protocol: Ubenimex or telmisartan was administered orally in a volume at 10 mL/kg. Ubenimex was administered at a dose of 5 mg/kg once daily or twice daily. Telmisartan was administered at a dose of 5 mg/kg once daily.
For plasma biochemistry, blood was collected in polypropylene tubes with anticoagulant (Novo-Heparin, Mochida Pharmaceutical Co. Ltd., Japan) and centrifuged at 1,000×g for 15 minutes at 4° C. The supernatant was collected and stored at −80° C. until use. Plasma ALT level was measured by FUJI DRI-CHEM 7000 (Fujifilm, Japan).
Liver total lipid-extracts were obtained by Folch's method (Folch et al., J. Biol Chem, 1957, 226:497). Liver samples were homogenized in chloroform-methanol (2:1 v/v) and incubated overnight at room temperature. After washing with chloroform-methanol-water (8:4:3 v/v/v), the extracts were evaporated to dryness and dissolved in isopropanol. Liver triglyceride content was measured by Triglyceride E-test (Wako Pure Chemical Industries, Ltd., Japan).
Study groups: The following study groups were used. Group 1 (Vehicle): 8 NASH mice were orally administered vehicle (RO water) in a volume of 10 mL/kg twice daily from 6 to 11 weeks of age. Group 2 (Ubenimex QD for 5 weeks): 8 NASH mice were orally administered vehicle supplemented with ubenimex at a dose of 5 mg/kg once daily from 6 to 11 weeks of age. Group 3 (Ubenimex BID for 5 weeks): 8 NASH mice were orally administered vehicle supplemented with ubenimex at a dose of 5 mg/kg twice daily from 6 to 11 weeks of age. Group 4 (Ubenimex BID for 2 weeks): 8 NASH mice were orally administered vehicle supplemented with ubenimex at a dose of 5 mg/kg twice daily from 9 to 11 weeks of age. Group 5 (Telmisartan for 5 weeks): 8 NASH mice were orally administered pure water supplemented with telmisartan at a dose of 5 mg/kg once daily from 6 to 11 weeks of age.

[3] = tested on: STAM model of NASH fibrosis; assay: Fibrosis area by Sirius red staining, STAM model of NASH with fibrosis (Example 3); type: in vivo, mouse
Protocol: Ubenimex or telmisartan was administered orally in a volume at 10 mL/kg. Ubenimex was administered at a dose of 5 mg/kg once daily or twice daily. Telmisartan was administered at a dose of 5 mg/kg once daily. For HE staining, sections were cut from paraffin blocks of liver tissue prefixed in Bouin's solution and stained with Lillie-Mayer's hematoxylin (Muto Pure Chemicals Co., Ltd., Japan) and eosin solution (Wako Pure Chemical Industries, Ltd., Japan). NAFLD Activity Score (NAS) was calculated according to the criteria of Kleiner (Kleiner et al., Hepatology, 2005, 41:1313). To visualize collagen deposition, Bouin's fixed liver sections were stained using picro-Sirius red solution (Waldeck, Germany). For quantitative analysis of fibrosis area, bright field images of Sirius red-staining sections were captured around the central vein using a digital camera (DFC295; Leica, Germany) at 200-fold magnification, and the positive areas in 5 fields/section were measured using ImageJ software (National Institutes of Health, USA). Study groups: The following study groups were used. Group 1 (Vehicle): 8 NASH mice were orally administered vehicle (RO water) in a volume of 10 mL/kg twice daily from 6 to 11 weeks of age. Group 2 (Ubenimex QD for 5 weeks): 8 NASH mice were orally administered vehicle supplemented with ubenimex at a dose of 5 mg/kg once daily from 6 to 11 weeks of age. Group 3 (Ubenimex BID for 5 weeks): 8 NASH mice were orally administered vehicle supplemented with ubenimex at a dose of 5 mg/kg twice daily from 6 to 11 weeks of age. Group 4 (Ubenimex BID for 2 weeks): 8 NASH mice were orally administered vehicle supplemented with ubenimex at a dose of 5 mg/kg twice daily from 9 to 11 weeks of age. Group 5 (Telmisartan for 5 weeks): 8 NASH mice were orally administered pure water supplemented with telmisartan at a dose of 5 mg/kg once daily from 6 to 11 weeks of age.

[4] = telmisartan 5 mg/kg QD oral, 6 to 11 weeks of age
[5] = ubenimex 5 mg/kg BID oral, 6 to 11 weeks of age
[6] = ubenimex 5 mg/kg BID oral, 9 to 11 weeks of age
[7] = ubenimex 5 mg/kg QD oral, 6 to 11 weeks of age

| SMILES | Plasma CK-18 ([1]; telmisartan group (10 mg/kg QD, 7 to 9 weeks)) | Liver triglyceride (mean ± SD) [2, 4] | Plasma ALT (mean ± SD) [2, 4] | Sirius red-positive area (fibrosis area, mean ± SD) [3, 4] | Plasma CK-18 ([1]; high dose ubenimex group (25 mg/kg BID, 7 to 9 weeks)) | Plasma CK-18 ([1]; low dose ubenimex group (5 mg/kg BID, 7 to 9 weeks)) | Liver triglyceride (mean ± SD) [2, 5] | Plasma ALT (mean ± SD) [2, 5] | Liver triglyceride (mean ± SD) [2, 6] | Plasma ALT (mean ± SD) [2, 6] | Liver triglyceride (mean ± SD) [2, 7] | Plasma ALT (mean ± SD) [2, 7] | Sirius red-positive area (fibrosis area, mean ± SD) [3, 5] | Sirius red-positive area (fibrosis area, mean ± SD) [3, 6] | Sirius red-positive area (fibrosis area, mean ± SD) [3, 7] |
| --- | --- | --- | --- | --- | --- | --- | --- | --- | --- | --- | --- | --- | --- | --- | --- |
| CCCc1nc2c(C)cc(-c3nc4ccccc4n3C)cc2n1Cc1ccc(-c2ccccc2C(=O)O)cc1 [Telmisartan, telmisartan] | 284.5±38.4 mIU/mL | 24.6 ± 8.4 mg/g liver | 36 ± 11 U/L | 0.57 ± 0.14% | – | – | – | – | – | – | – | – | – | – | – |
| CC(C)C[C@H](NC(=O)[C@@H](O)[C@H](N)Cc1ccccc1)C(=O)O [Ubenimex, (2S)-2-[[(2S,3R)-3-amino-2-hydroxy-4-phenylbutanoyl]amino]-4-methylpentanoic acid] | – | – | – | – | 230.8±28.6 mIU/mL | 238.5±7.7 mIU/mL | 59.6 ± 21.4 mg/g liver | 52 ± 21 U/L | 62.0 ± 33.5 mg/g liver | 47 ± 24 U/L | 58.6 ± 24.4 mg/g liver | 85 ± 64 U/L | 0.88 ± 0.22% | 0.87 ± 0.14% | 0.75 ± 0.16% |
